Assay results from PMC12449377, “Psychedelic-like effects induced by 2,5-dimethoxy-4-iodoamphetamine, lysergic acid diethylamide, and psilocybin in male and female C57BL/6J mice” (Psychopharmacology, 2025).
Where two headings read alike, the source gives them in different places.

Legend:
Type in all cases: in vivo, mouse
C57BL/6J mice [1] = test: Body temperature change in mice; conditions: for Body Temp Δ (°C) Mean: post 30 min session
Procedure: All mice were injected s.c. with temperature transponders (14 × 2 mm, model IPTT-300, Avidity Science, Waterford Wisconsin, USA) under brief isoflurane immobilization, and were given at least 1 week to recover (Glatfelter et al. [2022b]). Mice were single housed post-implant, and for the duration of the experiments, to protect their devices from being removed by cage mates. Temperature was measured noninvasively using a handheld reader which is sensitive to the transponder signals.
(§1) At 1–2 weeks prior to the beginning of experiments, mice were habituated to handling and receiving s.c. saline injections. On the day of an experiment, mice were acclimated to the testing room in their home cage for at least 30 min prior to the start of sessions. Prior to each session, mice were weighed, and resting body temperatures were recorded. Mice were then placed into experimental chambers for acclimation. Behavioral testing was carried out in TruScan mouse locomotor arenas equipped with photobeam arrays (Coulbourn Instruments, Holliston, MA, USA) that were modified with cylindrical inserts and transparent flooring to aid in semi-automated HTR detection as previously described (Glatfelter et al. [2022a]). After 5 min of acclimation, basal body temperature was recorded followed by s.c. injection of drug or vehicle, and mice were returned to test chambers for 30 min. Dose ranges for each drug were 0.03–10 mg/kg for DOI, 0.03–10 mg/kg for psilocybin, and 0.003–1 mg/kg for LSD. Mice were randomly assigned to specific doses at the beginning of the experiment and received different doses at each session.
(§2) During each session, locomotor activity was quantified via photobeam tracking of distance traveled in cm. Overhead GoPro Hero Black 7 video recordings (120 fps, 960p resolution) were analyzed using a commercially available software package from Clever Sys Inc. (Reston, VA, USA) for the measurement of HTR activity. Mouse body temperature was also collected post-session to calculate temperature change values (basal - post session temperature reading).
(§3) Concentration-response data were fit to a single site non-linear regression model. For the HTR studies, potencies were determined from the ascending limb of the dose-response curves using ED50 potency values from [agonist] vs. response (variable slope, four parameter) least squares fit non-linear regression analyses, whereas efficacy was defined by the top output parameter or Emax from the aforementioned analyses. […] Best-fit values for ED50 and Emax from non-linear regression analyses were compared by extra sum-of-squares F tests. Mean effects for each behavioral endpoint were compared using two-way ANOVA (dose x sex), followed by Sidak’s multiple comparisons post-hoc test. Mean effects for pooled mouse behavioral data were compared via Welch’s ANOVA with Dunnett’s T3 post-hoc test, comparing all doses to saline vehicle controls (0 mg/kg). Alpha was set to 0.05 for all analyses.

C57BL/6J mice [2] = test: Head twitch response (HTR) in mice; conditions: for HTR (total events) Mean: 30 min; for ED50: Mus musculus, sc
Procedure: Each drug was tested using groups of 12 mice per sex (i.e., 24 total mice per drug). Experimental sessions were conducted once every 1–2 weeks for 2 months per drug. Experimental sessions were spaced apart by at least 1 week to minimize the potential for tolerance to drug effects (Canal and Morgan [2012]; Darmani et al. [1990a]; de la Fuente Revenga et al. [2022]). Experiments were conducted during the light phase (1300–1700 local time; lights on = 0700 in a 12/12 light/dark cycle).
as §1, §2, §3

C57BL/6J mice [3] = test: Locomotor activity (distance traveled) in mice; conditions: for Locomotor Activity (cm) Mean: 30 min
Procedure: as §1, §2, §3

Compound: CCN(CC)C(=O)[C@@H]1C=C2c3cccc4[nH]cc(c34)C[C@H]2N(C)C1 [LSD, lysergic acid diethylamide]
- Body Temp Δ (°C) Mean (C57BL/6J mice [1]; 0.003 mg/kg s.c., female mice): -0.1 °C
- Body Temp Δ (°C) Mean (C57BL/6J mice [1]; 0.003 mg/kg s.c., male mice): -0.1 °C
- Body Temp Δ (°C) Mean (C57BL/6J mice [1]; 0.003 mg/kg s.c., pooled sexes): -0.1 °C
- Body Temp Δ (°C) Mean (C57BL/6J mice [1]; 0.01 mg/kg s.c., female mice): -0.1 °C
- Body Temp Δ (°C) Mean (C57BL/6J mice [1]; 0.01 mg/kg s.c., male mice): 0.3 °C
- Body Temp Δ (°C) Mean (C57BL/6J mice [1]; 0.01 mg/kg s.c., pooled sexes): 0.1 °C
- Body Temp Δ (°C) Mean (C57BL/6J mice [1]; 0.03 mg/kg s.c., female mice): -0.1 °C
- Body Temp Δ (°C) Mean (C57BL/6J mice [1]; 0.03 mg/kg s.c., male mice): 0.0 °C
- Body Temp Δ (°C) Mean (C57BL/6J mice [1]; 0.03 mg/kg s.c., pooled sexes): -0.1 °C
- Body Temp Δ (°C) Mean (C57BL/6J mice [1]; 0.1 mg/kg s.c., female mice): -0.3 °C
- Body Temp Δ (°C) Mean (C57BL/6J mice [1]; 0.1 mg/kg s.c., male mice): -0.1 °C
- Body Temp Δ (°C) Mean (C57BL/6J mice [1]; 0.1 mg/kg s.c., pooled sexes): -0.2 °C
- Body Temp Δ (°C) Mean (C57BL/6J mice [1]; 0.3 mg/kg s.c., female mice): -0.4 °C
- Body Temp Δ (°C) Mean (C57BL/6J mice [1]; 0.3 mg/kg s.c., male mice): -0.1 °C
- Body Temp Δ (°C) Mean (C57BL/6J mice [1]; 0.3 mg/kg s.c., pooled sexes): -0.2 °C
- Body temperature effect at highest dose (C57BL/6J mice [1]; 1 mg/kg s.c.): mild hypothermia
- Body Temp Δ (°C) Mean (C57BL/6J mice [1]; 1 mg/kg s.c., female mice): -0.9 °C
- Body Temp Δ (°C) Mean (C57BL/6J mice [1]; 1 mg/kg s.c., male mice): -1.5 °C
- Body Temp Δ (°C) Mean (C57BL/6J mice [1]; 1 mg/kg s.c., pooled sexes): -1.2 °C
- HTR (total events) Mean (C57BL/6J mice [2]; 0.003 mg/kg s.c., female mice): 6.5 total events
- HTR (total events) Mean (C57BL/6J mice [2]; 0.003 mg/kg s.c., male mice): 6.3 total events
- HTR (total events) Mean (C57BL/6J mice [2]; 0.003 mg/kg s.c., pooled sexes): 6.4 total events
- HTR (total events) Mean (C57BL/6J mice [2]; 0.01 mg/kg s.c., female mice): 10.7 total events
- HTR (total events) Mean (C57BL/6J mice [2]; 0.01 mg/kg s.c., male mice): 13.5 total events
- HTR (total events) Mean (C57BL/6J mice [2]; 0.01 mg/kg s.c., pooled sexes): 12.1 total events
- HTR (total events) Mean (C57BL/6J mice [2]; 0.03 mg/kg s.c., female mice): 24.2 total events
- HTR (total events) Mean (C57BL/6J mice [2]; 0.03 mg/kg s.c., male mice): 29.7 total events
- HTR (total events) Mean (C57BL/6J mice [2]; 0.03 mg/kg s.c., pooled sexes): 27.2 total events
- HTR (total events) Mean (C57BL/6J mice [2]; 0.1 mg/kg s.c., female mice): 43.5 total events
- HTR (total events) Mean (C57BL/6J mice [2]; 0.1 mg/kg s.c., male mice): 43.7 total events
- HTR (total events) Mean (C57BL/6J mice [2]; 0.1 mg/kg s.c., pooled sexes): 43.6 total events
- HTR (total events) Mean (C57BL/6J mice [2]; 0.3 mg/kg s.c., female mice): 55.8 total events
- HTR (total events) Mean (C57BL/6J mice [2]; 0.3 mg/kg s.c., male mice): 45.0 total events
- HTR (total events) Mean (C57BL/6J mice [2]; 0.3 mg/kg s.c., pooled sexes): 50.4 total events
- HTR (total events) Mean (C57BL/6J mice [2]; 1 mg/kg s.c., female mice): 38.0 total events
- HTR (total events) Mean (C57BL/6J mice [2]; 1 mg/kg s.c., male mice): 26.2 total events
- HTR (total events) Mean (C57BL/6J mice [2]; 1 mg/kg s.c., pooled sexes): 32.1 total events
- ED50 (C57BL/6J mice [2]; female mice, ascending limb of dose-response curve, read-out: HTR ♀ ED50 (95% CI)): 0.051 mg/kg
- ED50 (C57BL/6J mice [2]; male mice, ascending limb of dose-response curve, read-out: HTR ♂ ED50 (95% CI)): 0.024 mg/kg
- ED50 (C57BL/6J mice [2]; pooled male and female mice, read-out: HTR ♂+♀ ED50 (95% CI)): 0.035 mg/kg
- Duration of HTR effect in the session (C57BL/6J mice [2]; peak/active doses, 30 min session): trended to baseline levels by the end of the testing session
- Time of peak effects on HTR post drug administration (C57BL/6J mice [2]; s.c., both sexes, 30 min session): 5 to 10 min
- HTR ♀ Emax (95% CI) (C57BL/6J mice [2]; s.c., female mice, top of regression fit): 58 (50–68) HTR events
- HTR ♂ Emax (95% CI) (C57BL/6J mice [2]; s.c., male mice, top of regression fit): 46 (44–50) HTR events
- HTR ♂+♀ Emax (95% CI) (C57BL/6J mice [2]; s.c., pooled male and female mice): 51 (46–60) HTR events
- Locomotor Activity (cm) Mean (C57BL/6J mice [3]; 0.003 mg/kg s.c., female mice): 2499.8 cm
- Locomotor Activity (cm) Mean (C57BL/6J mice [3]; 0.003 mg/kg s.c., male mice): 2549.1 cm
- Locomotor Activity (cm) Mean (C57BL/6J mice [3]; 0.003 mg/kg s.c., pooled sexes): 2526 cm
- Locomotor Activity (cm) Mean (C57BL/6J mice [3]; 0.01 mg/kg s.c., female mice): 2581.2 cm
- Locomotor Activity (cm) Mean (C57BL/6J mice [3]; 0.01 mg/kg s.c., male mice): 2649.3 cm
- Locomotor Activity (cm) Mean (C57BL/6J mice [3]; 0.01 mg/kg s.c., pooled sexes): 2615 cm
- Locomotor Activity (cm) Mean (C57BL/6J mice [3]; 0.03 mg/kg s.c., female mice): 2977.4 cm
- Locomotor Activity (cm) Mean (C57BL/6J mice [3]; 0.03 mg/kg s.c., male mice): 2756.4 cm
- Locomotor Activity (cm) Mean (C57BL/6J mice [3]; 0.03 mg/kg s.c., pooled sexes): 2867 cm
- Locomotor Activity (cm) Mean (C57BL/6J mice [3]; 0.1 mg/kg s.c., female mice): 2290.0 cm
- Locomotor Activity (cm) Mean (C57BL/6J mice [3]; 0.1 mg/kg s.c., male mice): 2650.0 cm
- Locomotor Activity (cm) Mean (C57BL/6J mice [3]; 0.1 mg/kg s.c., pooled sexes): 2456 cm
- Locomotor Activity (cm) Mean (C57BL/6J mice [3]; 0.3 mg/kg s.c., female mice): 2309.5 cm
- Locomotor Activity (cm) Mean (C57BL/6J mice [3]; 0.3 mg/kg s.c., male mice): 2123.8 cm
- Locomotor Activity (cm) Mean (C57BL/6J mice [3]; 0.3 mg/kg s.c., pooled sexes): 2217 cm
- Locomotor activity effect (C57BL/6J mice [3]; 1 mg/kg s.c.): decreased locomotion
- Locomotor Activity (cm) Mean (C57BL/6J mice [3]; 1 mg/kg s.c., female mice): 2029.2 cm
- Locomotor Activity (cm) Mean (C57BL/6J mice [3]; 1 mg/kg s.c., male mice): 1571.6 cm
- Locomotor Activity (cm) Mean (C57BL/6J mice [3]; 1 mg/kg s.c., pooled sexes): 1800 cm
